Results published in patent publication US20190375708A1 (VenatoRx Pharmaceuticals, Inc., priority 2018, published 2019).

Key:
[1] = test system: HBV replication in HepAD38 cells; assay: Anti-HBV replication assay in HepAD38 cells (QPCR of extracellular HBV DNA); assay type: cell-based, HBV (genotype D, serotype ayw); conditions: Hepatitis B virus, 168 h, 7 days incubation, extracellular HBV DNA by QPCR, read-out: Anti-HBV EC50
How it was run: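 HepAD38 cells (HepG2 carrying tet-repressible HBV genotype D genome) induced by tetracycline withdrawal, treated 7 days at 37 °C with compound ([…], 1-log10 dilutions). Extracellular HBV DNA quantified by QPCR against a standard curve, normalised to DMSO; EC50 from 4-parameter fit.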

[2] = In vitro cytotoxicity assay (MTT cell viability) in HepG2 cells; assay type: cell-based, human; conditions: human
How it was run: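 Read-out: MTT formazan absorbance at 492 nm, expressed as % of vehicle signal; CC50 by 4-parameter non-linear regression. Parental HepG2, 20,000 cells/well, treated 7 days with compound from 30 μM down to 1.0 nM.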

SMILES | EC50 [1] [nM] | CC50 at 7 days [2] [nM]
Cc1cc(NC(=O)c2c(C)c(C(=O)C(=O)NC3(C(F)(F)F)CCOC3)n(C)c2C)ccc1F (centres unmarked) [Example 278, N-(4-fluoro-3-methylphenyl)-1,2,4-trimethyl-5-(2-oxo2-((3-(trifluoromethyl)tetrahydrofuran-3-yl)amino)acetyl)-1H-pyrrole-3-carboxamide] | < 50 | > 30000
COc1c(C(=O)Nc2ccc(F)c(F)c2)c(C)n(C)c1C(=O)C(=O)N[C@@H]1CCC[C@@H]1O [Example 384] | > 1000 | > 30000
Cc1c(C(=O)Nc2ccc(F)c(Cl)c2)c(C)n(C)c1C(=O)C(=O)Nc1cccnc1 [Example 311, N-(3-chloro-4-fluorophenyl)-1,2,4-trimethyl-5-(22-oxo-2-(pyridin-3-ylamino)acetyl)-1H-pyrrole-3-carboxamide] | < 50 | > 30000
Cc1cc(NC(=O)c2c(C)c(C(=O)C(=O)NC3(C)C(=O)NCC34CC4)n(C)c2C)ccc1F (centres unmarked) [Example 680, N-(4-fluoro-3-methylphenyl)-1,2,4-trimethyl-5-(2-((7-methyl-6-oxo-5-azaspiro[2.4]heptan-7-yl)amino)-2-oxoacetyl)-1H-pyrrole-3-carboxamide] | < 50 | > 30000
Cc1cc(NC(=O)c2c(C)c(C(=O)C(=O)N[C@@H](C)C(C)(C)C)n(C)c2C)ccc1F [Example 88, (S)-5-(2-((3,3-dimethylbutan-2-yl)amino)-2-oxoacetyl)-N-(4-fluoro-3-methylphenyl)-1,2,4-trimethyl-1H-pyrrole-3-carboxamide] | < 50 | 5000 to 30000
Cc1cc(NC(=O)c2c(C)c(C(=O)C(=O)NC(C)(C)C(F)(F)F)n(CCF)c2C)ccc1F [Example 227, N-(4-fluoro-3-methylphenyl)-1-(2-fluoroethyl)-2,4-dimethyl-5-(2-oxo-2-((1,1,1-trifluoro-2-methylpropan-2-yl)amino)acetyl)-1H-pyrrole-3-carboxamide] | < 50 | > 30000
CCn1c(C)c(C(=O)Nc2ccc(F)c(C)c2)c(C)c1C(=O)C(=O)NC1(C(F)(F)F)CCOCC1 [Example 285, 1-ethyl-N-(4-fluoro-3-methylphenyl)-2,4-dimethyl-5-(2-oxo-2-((4-(trifluoromethyl)tetrahydro-2H-pyran-4-yl)amino)acetyl)-1H-pyrrole-3-carboxamide] | < 50 | > 30000
Cc1cc(NC(=O)c2c(C)c(C(=O)C(=O)NC(C)(C)COC(F)F)n(C)c2C)ccc1F [Example 718, 5-(2-((1-(difluoromethoxy)-2-methylpropan-2-yl)amino)-2-oxoacetyl)-N-(4-fluoro-3-methylphenyl)-1,2,4-trimethyl-1H-pyrrole-3-carboxamide] | < 50 | 5000 to 30000
Cc1cc(NC(=O)c2c(Cl)c(C(=O)C(=O)NCc3cnc(N)s3)n3c2CCC3)cnc1F [Example 734, 5-(2-(((2-aminothiazol-5-yl)methyl)amino)-2-oxoacetyl)-6-chloro-N-(6-fluoro-5-methylpyridin-3-yl)-2,3-dihydro-1H-pyrrolizine-7-carboxamide] | < 50 | > 30000
Cc1cc(NC(=O)c2c(C)c(C(=O)C(=O)NC3(CO)CC3)n(C)c2C)ccc1F [Example 7, N-(4-fluoro-3-methylphenyl)-5-(2-((1-(hydroxymethyl)cyclopropyl)amino)-2-oxoacetyl)-1,2,4-trimethyl-1H-pyrrole-3-carboxamide] | < 50 | > 30000
O=C(N[C@H]1COC[C@@H]1O)C(=O)c1c(Cl)c(C(=O)Nc2ccc(F)c(Cl)c2)c2n1CCC2 [Example 563, 6-chloro-N-(3-chloro-4-fluorophenyl)-5-(2-(((3S,4R)-4-hydroxytetrahydrofuran-3-yl)amino)-2-oxoacetyl)-2,3-dihydro-1H-pyrrolizine-7-carboxamide] | < 50 | 5000 to 30000
Cc1cc(NC(=O)c2c(C)c(C(=O)C(=O)N[C@H]3CC[C@@](C)(O)CC3)n(C)c2C)ccc1F [Example 214, N-(4-fluoro-3-methylphenyl)-5-(2-(((1s,4s)-4-hydroxy-4-methylcyclohexyl)amino)-2-oxoacetyl)-1,2,4-trimethyl-1H-pyrrole-3-carboxamide] | < 50 | > 30000
Cc1cc(NC(=O)c2c(C)c(C(=O)C(=O)N[C@@H]3CCC[C@H]3O)n(CCF)c2C)ccc1F [Example 195, N-(4-fluoro-3-methylphenyl)-1-(2-fluoroethyl)-5-(2-(((1R,2R)-2-hydroxycyclopentyl)amino)-2-oxoacetyl)-2,4-dimethyl-1H-pyrrole-3-carboxamide] | < 50 | > 30000
CNC(=O)[C@@H](NC(=O)C(=O)c1c(C)c(C(=O)Nc2ccc(F)c(C)c2)c(C)n1C)C1CC1 [Example 123, (S)-5-(2-((1-cyclopropyl-2-(methylamino)-2-oxoethyl)amino)-2-oxoacetyl)-N-(4-fluoro-3-methylphenyl)-1,2,4-trimethyl-1H-pyrrole-3-carboxamide] | 50 to 499 | > 30000
Cc1noc(C(NC(=O)C(=O)c2c(C)c(C(=O)Nc3ccc(F)c(C)c3)c(C)n2C)C(C)C)n1 (centres unmarked) [Example 81, N-(4-fluoro-3-methylphenyl)-1,2,4-trimethyl-5-(2-((2-methyl-1-(3-methyl-1,2,4-oxadiazol-5-yl)propyl)amino)-2-oxoacetyl)-1H-pyrrole-3-carboxamide] | < 50 | > 30000
Cc1cc(NC(=O)c2c(C)c(C(=O)C(=O)N[C@H](C)CO)n(C)c2C)ccc1F [Example 219, (R)-N-(4-fluoro-3-methylphenyl)-5-(2-((1-hydroxypropan-2-yl)amino)-2-oxoacetyl)-1,2,4-trimethyl-1H-pyrrole-3-carboxamide] | < 50 | > 30000
Cc1cc(NC(=O)c2c(C)c(C(=O)C(=O)NC(C)(C)CCO)n(C)c2C)ccc1F [Example 11, N-(4-fluoro-3-methylphenyl)-5-(2-((4-hydroxy-2-methylbutan-2-yl)amino)-2-oxoacetyl)-1,2,4-trimethyl-1H-pyrrole-3-carboxamide] | < 50 | > 30000
Cc1c(C(=O)Nc2ccc(F)nc2)c(C)n(C)c1C(=O)C(=O)N[C@H]1CC[C@](O)(C(F)(F)F)CC1 [Example 239] | 500 to 1000 | > 30000
Cc1cc(NC(=O)c2cc(C(=O)C(=O)NC3(C(F)(F)F)CCC3)n3c2CCCC3)ccc1F [Example 403] | 50 to 499 | > 30000
Cc1cc(NC(=O)c2c(C)c(C(=O)C(=O)NC3COCCOC3)n(C)c2C)ccc1F [Example 714, 5-(2-((1,4-dioxepan-6-yl)amino)-2-oxoacetyl)-N-(4-fluoro-3-methylphenyl)-1,2,4-trimethyl-1H-pyrrole-3-carboxamide] | < 50 | > 30000
Cc1cc(NC(=O)c2c(C)c(C(=O)C(=O)NCC(C)(C)CO)n3c2CCCC3)ccc1F [Example 443, N-(4-fluoro-3-methylphenyl)-3-(2-((3-hydroxy-2,2-dimethylpropyl)amino)-2-oxoacetyl)-2-methyl-5,6,7,8-tetreahydroindolizine-1-carboxamide] | < 50 | 5000 to 30000
Cc1noc([C@H](C)NC(=O)C(=O)c2c(Cl)c(C(=O)Nc3cnc(F)c(C)c3)c3n2CCCC3)n1 [Example 521, (S)-2-chloro-N-(6-fluoro-5-methylpyridin-3-yl)-3-(2-((1-(3-methyl-1,2,4-oxadiazol-5-yl)ethyl)amino)-2-oxoacetyl)-5,6,7,8-tetrahydroindolizine-1-carboxamide] | > 1000 | > 30000
Cc1cc(NC(=O)c2c(C)c(C(=O)C(=O)NC3(C(F)(F)F)CCOCC3)n(CCF)c2C)ccc1F [Example 230, N-(4-fluoro-3-methylphenyl)-1-(2-fluoroethyl)--2,4-dimethyl-5-(2-oxo-2-((4-(trifluoromethyl)tetrahydro-2H-pyran-4-yl)amino)acetyl)-1H-pyrrole-3-carboxamide] | < 50 | > 30000
Cc1c(C(=O)Nc2ccc(F)nc2)c(C)n(C)c1C(=O)C(=O)N[C@H](C)C(F)(F)F [Example 166, (R)-N-(6-fluoropyridin-3-yl)-1,2,4-trimethyl-5-(2-oxo-2-((1,1,1-trifluoropropan-2-yl)amino)acetyl)-1H-pyrrole-3-carboxamide] | < 50 | > 30000
Cc1cc(NC(=O)c2c(C)c(C(=O)C(=O)N3C4CCCC3CC(=O)C4)n(C)c2C)cnc1F [Example 193, N-(6-fluoro-5-methylpyridin-3-yl)-1,2,4-trimethyl-5-(2-oxo-2-(3-oxo-9-azabicyclo[3.3.1]nonan-9-yl)acetyl)-1H-pyrrole-3-carboxamide] | > 1000 | > 30000
Cc1cc(NC(=O)c2c(C)c(C(=O)C(=O)NC(C)(C)C)n(C)c2C)cnc1F [Example 112, 5-(2-(tert-butylamino)-2-oxoacetyl)-N-(6-fluoro-5-methylpyridin-3-yl)-1,2,4-trimethyl-1H-pyrrole-3-carboxamide] | 50 to 499 | > 30000
Cc1cc(NC(=O)c2c(C)c(C(=O)C(=O)Nc3ccc4c(c3)COB4O)n(C)c2C)ccc1F [Example 678, N-(4-fluoro-3-methylphenyl)-5-(2-((1-hydroxy-1,3-dihydrobenzo[c][1,2]oxaborol-5-yl)amino)-2-oxoacetyl)-1,2,4-trimethyl-1H-pyrrole-3-carboxamide] | < 50 | 5000 to 30000
Cc1cc(NC(=O)c2c(Cl)c(C(=O)C(=O)NC(C)(C)C)n(C)c2C)cnc1F [Example 371, 5-(2-(tert-butylamino)-2-oxoacetyl)-4-chloro-N-(6-fluoro-5-methylpyridin-3-yl)-1,2-dimethyl-1H-pyrrole-3-carboxamide] | 50 to 499 | > 30000
